Assays:
yeast cells [1] = experiment: Adsorption isotherms: polyphenols adsorbed by yeast; assay type: binding, Saccharomyces cerevisiae; details: 24 h contact in model wine, 10^8 cells/mL, A280 of supernatant; FIG. 7a
Protocol: A contact time of 24 h was chosen for adsorption experiments. A stock solution of polyphenols with a molecular weight below 620 Da was prepared by dissolving catechin powder in a model wine at a concentration of 10 g/L. A stock solution of polyphenols with a molecular weight above 620 Da was prepared by dissolving grape skin tannins with a DPm of 20 in a model wine at a concentration of 10 g/L
Dilutions of both stock solutions were performed to get a final concentration range between 0.01 and 5 g/L. All sorption experiments were carried out by mixing equal volumes of a 2×g·L^−1 polyphenol solution (x being the final desired polyphenol concentration) and of a 2·10^8 cells/mL suspension (final concentration 10^8 cells/mL). Samples (2 ml) were placed in a 2 mL tightly closed Eppendorf in order to minimize headspace and were stirred continuously (Stuart rotator SB3, 40 rpm) in absence of light and at room temperature. […] The total polyphenol concentrations in the bulk were determined by absorbency measurements at 280 nm after adequate dilution. Total encapsulated polyphenol with a molecular weight below 620 Da and total encapsulated polyphenols with a molecular weight above 620 Da were calculated from the difference in absorbency between the samples and the corresponding controls using: […]

yeast cells [2] = experiment: Evaluation of the reversibility of polyphenol adsorption; assay type: binding, Saccharomyces cerevisiae; details: pellets re-suspended in model wine without polyphenols, 24 h; FIG. 7b
Protocol: The yeast pellets obtained by centrifugation after adsorption above were re-suspended in 2 ml of a model wine without polyphenols. Samples were stirred for 24 h and the supernatants recovered. The adsorption reversibility was evaluated through the quantity of polyphenols recovered in supernatants.

**Q.** What does the source list for catechin?
**A.** amounts of polyphenols adsorbed by yeast, compared with DPm 20 (yeast cells [1]): about 10 times lower; reversibility of interactions between yeast and adsorbed polyphenols (yeast cells [2]): fully reversible

— US20250263644A1, “COMPOSITIONS COMPRISING YEAST CELLS AND POLYPHENOLS AND THEIR USE” (INSTITUT NATIONAL D'ETUDES SUPERIEURES AGRONOMIQUES DE …, priority 2015, published 2025)
